Laboratory results: PubChem BioAssay AID328 (DTP/NCI, 2004)
Where “and” joins values, the source holds several entries; their conditions need not be identical. Equal entries are not always repeated. Inconclusive results and toxic doses are left out. Rule for the calls: active = survival T/C of 150% or more; inactive = T/C below 125% in these data.

Test system: BDF1 mice, P388 leukemia ip, median survival T/C
Experiment: NCI In Vivo Anticancer Drug Screen. Data for tumor model P388 Leukemia (intraperitoneal) in B6D2F1 (BDF1) mice
Details: endpoint: median survival time, higher = longer survival
Outline: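 Compound-treated tumour-bearing mice were compared with vehicle-treated controls. Survival was recorded, and the value is the treated-group measurement divided by the control-group measurement (T/C).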

[1] = dose: 12.5 mg/kg/injection, schedule: Q01DX009 (ip), vehicle: saline with Tween-80
[2] = dose: 50.0 mg/kg/injection, schedule: Q01DX009 (ip), vehicle: saline with Tween-80
[3] = dose: 100.0 mg/kg/injection, schedule: Q01DX009 (ip), vehicle: saline with Tween-80
[4] = dose: 200.0 mg/kg/injection, schedule: Q01DX009 (ip), vehicle: saline with Tween-80
[5] = dose: 100.0 mg/kg/injection, schedule: Q04DX003 (ip), vehicle: saline with Tween-80
[6] = dose: 200.0 mg/kg/injection, schedule: Q04DX003 (ip), vehicle: saline with Tween-80
[7] = dose: 400.0 mg/kg/injection, schedule: Q04DX003 (ip), vehicle: saline with Tween-80
[8] = dose: 25.0 mg/kg/injection, schedule: Q01DX009 (ip), vehicle: saline with Tween-80
[9] = dose: 400.0 mg/kg/injection, schedule: Q01DX009 (ip), vehicle: saline with Tween-80
[10] = dose: 100.0 mg/kg/injection, schedule: Q01DX009 (ip), vehicle: saline
[11] = dose: 100.0 mg/kg/injection, schedule: Q01DX001 (ip), vehicle: saline with Tween-80

Measured: T/C

CCCCSC#N
inactive: dose: 6.25 mg/kg/injection, schedule: Q01DX001 (ip), vehicle: saline 94 % of control | dose: 12.5 mg/kg/injection, schedule: Q01DX001 (ip), vehicle: saline 100 % of control

CCC[CH2][Hg][O]C(C)=O
inactive: dose: 3.13 mg/kg/injection, schedule: Q01DX009 (ip), vehicle: saline with Tween-80 115 % of control | dose: 3.13 mg/kg/injection, schedule: Q04DX003 (ip), vehicle: saline sonified 110 % of control | dose: 4.16 mg/kg/injection, schedule: Q01DX009 (ip), vehicle: saline 114 % of control | dose: 6.25 mg/kg/injection, schedule: Q01DX009 (ip), vehicle: saline 114 % of control | dose: 6.25 mg/kg/injection, schedule: Q04DX003 (ip), vehicle: saline sonified 120 % of control | dose: 8.25 mg/kg/injection, schedule: Q04DX003 (ip), vehicle: saline sonified 109 % of control | [1] 100 % of control | dose: 12.5 mg/kg/injection, schedule: Q04DX003 (ip), vehicle: saline sonified 118 % of control

CCOCN(COCC)c1ccc(C)cc1
inactive: [2] 97 % of control | [3] 104 % of control | [4] 97 % of control

CC(C)n1cnc2c(=S)nc[nH]c21
inactive: [3] 91 % of control | [5] 100 % of control | [6] 104 % of control | [7] 113 % of control

O=C(c1ccccc1)C1OC1c1ccc([N+](=O)[O-])cc1 (stereo not given)
inactive: dose: 100.0 mg/kg/injection, schedule: Q04DX003 (ip), vehicle: saline sonified 104 % of control | dose: 200.0 mg/kg/injection, schedule: Q04DX003 (ip), vehicle: saline sonified 100 % of control | dose: 400.0 mg/kg/injection, schedule: Q04DX003 (ip), vehicle: saline sonified 100 % of control

CCCN1CCN(c2ccc([N+](=O)[O-])c3no[n+]([O-])c23)CC1
active: dose: 10.0 mg/kg/injection, schedule: Q01DX009 (ip), vehicle: saline with Tween-80 155 % of control
inactive: dose: 2.5 mg/kg/injection, schedule: Q01DX009 (ip), vehicle: saline with Tween-80 122 % of control

Cc1ccc(C(=O)Cl)cc1S(=O)(=O)F
inactive: [8] 100 % of control | dose: 50.0 mg/kg/injection, schedule: Q04DX003 (ip), vehicle: saline with Tween-80 101 % of control | [3] 93 % of control | [5] 109 % of control | [6] 101 % of control

O=C1c2cc(O)c(O)cc2O[C@H](c2ccc(O)c(O)c2)[C@H]1O
inactive: dose: 7.5 mg/kg/injection, schedule: Q01DX010 (ip), vehicle: saline 100 % of control | dose: 15.0 mg/kg/injection, schedule: Q01DX009 (ip), vehicle: saline 113 % of control and 118 % of control | dose: 15.0 mg/kg/injection, schedule: Q01DX010 (ip), vehicle: saline 109 % of control | dose: 30.0 mg/kg/injection, schedule: Q01DX009 (ip), vehicle: saline 100 % of control | dose: 30.0 mg/kg/injection, schedule: Q01DX010 (ip), vehicle: saline 109 % of control | dose: 60.0 mg/kg/injection, schedule: Q01DX009 (ip), vehicle: saline 104 % of control and 122 % of control | dose: 125.0 mg/kg/injection, schedule: Q01DX009 (ip), vehicle: saline 104 % of control | dose: 350.0 mg/kg/injection, schedule: Q01DX009 (ip), vehicle: saline 117 % of control

CC(C(=O)c1ccccc1)C(Cl)c1ccccc1 (stereo not given)
inactive: [2] 95 % of control | [3] 94 % of control | [5] 89 % of control | [4] 86 % of control | [6] 89 % of control | [9] 86 % of control | [7] 98 % of control

COc1ccc(C(=O)CC(C#N)c2ccc(OC)cc2)cc1 (stereo not given)
inactive: [2] 106 % of control | [3] 106 % of control | [4] 101 % of control

O=C1CC(c2ccc(O)cc2)C2(O1)C(=O)OC(C(O)CO)C2O (stereo not given)
inactive: dose: 50.0 mg/kg/injection, schedule: Q01DX010 (ip), vehicle: saline 100 % of control | dose: 100.0 mg/kg/injection, schedule: Q01DX010 (ip), vehicle: saline 100 % of control | dose: 200.0 mg/kg/injection, schedule: Q01DX010 (ip), vehicle: saline 105 % of control | dose: 400.0 mg/kg/injection, schedule: Q01DX010 (ip), vehicle: saline 105 % of control

CC(C#N)(Nc1ccccc1)c1ccccc1 (stereo not given)
inactive: [5] 95 % of control | [6] 100 % of control | [7] 100 % of control

Cc1ccc(NC(=O)/C=C\C(=O)O)cc1
inactive: dose: 100.0 mg/kg/injection, schedule: Q04DX003 (ip), vehicle: Klucel (hydroxypropylcellulose) (HPC) 108 % of control | dose: 200.0 mg/kg/injection, schedule: Q04DX003 (ip), vehicle: Klucel (hydroxypropylcellulose) (HPC) 100 % of control | dose: 400.0 mg/kg/injection, schedule: Q04DX003 (ip), vehicle: Klucel (hydroxypropylcellulose) (HPC) 100 % of control

CCN(c1ccccc1)c1cc2c(cc1[N+](=O)[O-])no[n+]2[O-]
inactive: dose: 30.0 mg/kg/injection, schedule: Q01DX009 (ip), vehicle: saline with Tween-80 123 % of control | dose: 60.0 mg/kg/injection, schedule: Q01DX009 (ip), vehicle: saline with Tween-80 113 % of control

CN(C)C(=S)/N=c1\ss/c(=N\C(=S)N(C)C)n1-c1ccccc1
inactive: [2] 100 % of control | [3] 95 % of control | [4] 95 % of control

COP1(=O)OCC2OC(n3cnc4c(N)ncnc43)C(O)C2O1 (stereo not given)
inactive: [10] 88 % of control

COc1ccc(CNCC(OC)OC)cc1O
inactive: [11] 99 % of control | dose: 200.0 mg/kg/injection, schedule: Q01DX001 (ip), vehicle: saline with Tween-80 102 % of control

COc1ccc2c(C#N)cc3c4ccccc4ncc3c2c1
inactive: dose: 12.5 mg/kg/injection, schedule: Q01DX009 (ip), vehicle: distilled water + Tween-80 107 % of control | dose: 25.0 mg/kg/injection, schedule: Q01DX009 (ip), vehicle: distilled water + Tween-80 113 % of control | dose: 50.0 mg/kg/injection, schedule: Q01DX009 (ip), vehicle: distilled water + Tween-80 88 % of control | dose: 100.0 mg/kg/injection, schedule: Q01DX009 (ip), vehicle: distilled water + Tween-80 88 % of control

CCOP(=O)(C/C(=N\Nc1ccc([N+](=O)[O-])cc1[N+](=O)[O-])c1ccccc1)c1ccccc1 (stereo not given)
inactive: dose: 25.0 mg/kg/injection, schedule: Q01DX001 (ip), vehicle: saline with Tween-80 100 % of control | dose: 50.0 mg/kg/injection, schedule: Q01DX001 (ip), vehicle: saline with Tween-80 104 % of control | [11] 95 % of control

Nc1ccc(CCc2ccccc2)cc1
inactive: [1] 122 % of control | [8] 100 % of control | [2] 109 % of control | dose: 56.25 mg/kg/injection, schedule: Q04DX003 (ip), vehicle: saline with Tween-80 108 % of control | dose: 75.0 mg/kg/injection, schedule: Q01DX009 (ip), vehicle: saline with Tween-80 118 % of control | dose: 112.5 mg/kg/injection, schedule: Q04DX003 (ip), vehicle: saline with Tween-80 112 % of control

C=CC(=O)NCCCCC(N)C(=O)O (stereo not given)
inactive: [1] 108 % of control | [8] 106 % of control | [2] 113 % of control

COc1ccc(C(=O)CC(C(=O)O)c2ccc3c(c2)OCO3)cc1OC (stereo not given)
inactive: [3] 109 % of control | [4] 100 % of control | [9] 104 % of control

Clc1ccc(-c2nc3ncccn3n2)cc1
inactive: [1] 106 % of control | [8] 95 % of control | [2] 91 % of control and 95 % of control | [4] 101 % of control

COc1cccnc1/C=N/NC(N)=S
active: dose: 5.0 mg/kg/injection, schedule: Q01DX009 (ip), vehicle: saline with Tween-80 157 % of control | dose: 8.0 mg/kg/injection, schedule: Q01DX009 (ip), vehicle: saline with Tween-80 158 % of control | dose: 12.0 mg/kg/injection, schedule: Q01DX009 (ip), vehicle: saline with Tween-80 158 % of control and 175 % of control
inactive: dose: 1.5 mg/kg/injection, schedule: Q01DX009 (ip), vehicle: saline with Tween-80 115 % of control | dose: 3.0 mg/kg/injection, schedule: Q01DX009 (ip), vehicle: saline with Tween-80 118 % of control

O=C(O)COCC(F)(F)C(F)(F)C(F)(F)COCC(=O)O
inactive: dose: 50.0 mg/kg/injection, schedule: Q01DX009 (ip), vehicle: saline 90 % of control | [10] 110 % of control | dose: 100.0 mg/kg/injection, schedule: Q04DX003 (ip), vehicle: saline 100 % of control | dose: 200.0 mg/kg/injection, schedule: Q01DX009 (ip), vehicle: saline 110 % of control | dose: 200.0 mg/kg/injection, schedule: Q04DX003 (ip), vehicle: saline 122 % of control

COc1cc(C=O)c(C=O)cc1OC
inactive: dose: 6.25 mg/kg/injection, schedule: Q04DX003 (ip), vehicle: saline with Tween-80 110 % of control | dose: 12.5 mg/kg/injection, schedule: Q04DX003 (ip), vehicle: saline with Tween-80 106 % of control | dose: 25.0 mg/kg/injection, schedule: Q04DX003 (ip), vehicle: saline with Tween-80 106 % of control | [5] 97 % of control
